For this series the following is noted: 101.33 kPa, Liquid; for speed of sound: Sing-around technique in a fixed-path interferometer; for mass density: Vibrating tube method.

Numbers after ± are expanded uncertainties.

The speed of sound is how fast a sound wave travels through the sample. In general, mass density refers to mass per unit of volume. Turning to `OCCO` [1,2-ethanediol], the speed of sound is recorded as 1677.5 ± 2.2 m/s (288.15 K); 1665.6 ± 2.2 m/s (293.15 K); 1653.9 ± 2.2 m/s (298.15 K); 1642.2 ± 2.2 m/s (303.15 K); 1630.6 ± 2.2 m/s (308.15 K); 1618.9 ± 2.2 m/s (313.15 K). For the same molecule, the speed of sound (318.15 K) is 1607.3 ± 2.2 m/s. Moreover, the mass density is on record as 1113.35 ± 0.16 kg/m3 (293.15 K), 1106.33 ± 0.16 kg/m3 (303.15 K) and 1099.26 ± 0.16 kg/m3 (313.15 K).
As to `CCCCn1cc[n+](C)c1C.F[B-](F)(F)F` [1-butyl-2,3-dimethylimidazolium tetrafluoroborate], the speed of sound was 1668.6 ± 2.2 m/s (288.15 K); 1654.9 ± 2.1 m/s (293.15 K); 1641.4 ± 2.1 m/s (298.15 K); 1628.7 ± 2.1 m/s (303.15 K); 1616.9 ± 2.1 m/s (308.15 K); 1605.1 ± 2.1 m/s (313.15 K). The speed of sound (318.15 K) is given as 1593.9 ± 2.1 m/s. For the same molecule, the mass density by setting is: (288.15 K) 1199.9 ± 0.15 kg/m3; (293.15 K) 1196.72 ± 0.15 kg/m3; (298.15 K) 1193.34 ± 0.15 kg/m3; (303.15 K) 1189.92 ± 0.15 kg/m3; (308.15 K) 1186.52 ± 0.15 kg/m3; (313.15 K) 1183.17 ± 0.15 kg/m3. Also, where the note is “318.15 K”, the mass density came out at 1179.54 ± 0.15 kg/m3.
Regarding `CCCCCn1cc[n+](C)c1.F[B-](F)(F)F` [1-methyl-3-pentyl-imidazolium tetrafluoroborate], the speed of sound reads like this: (288.15 K) 1565.2 ± 2.9 m/s; (293.15 K) 1552.5 ± 2.9 m/s; (298.15 K) 1540.2 ± 2.9 m/s; (303.15 K) 1528.2 ± 2.9 m/s; (308.15 K) 1516.3 ± 2.9 m/s; (313.15 K) 1504.6 ± 2.9 m/s. The speed of sound (318.15 K) is 1493.1 ± 2.9 m/s. The mass density is listed as 1183.92 ± 1.2 kg/m3 (288.15 K); 1180.34 ± 1.2 kg/m3 (293.15 K); 1176.85 ± 1.2 kg/m3 (298.15 K); 1173.35 ± 1.2 kg/m3 (303.15 K); 1169.85 ± 1.2 kg/m3 (308.15 K); 1166.36 ± 1.2 kg/m3 (313.15 K). Moreover, under “318.15 K”, the mass density worked out at 1162.85 ± 1.2 kg/m3.
`CCCCCn1cc[n+](C)c1.[Br-]` [1-pentyl-3-methylimidazolium bromide]: the speed of sound was determined as 1678.6 ± 3 m/s (288.15 K); 1644.2 ± 3 m/s (293.15 K); 1617.5 ± 3 m/s (298.15 K); 1596.4 ± 2.9 m/s (303.15 K); 1578.9 ± 2.9 m/s (308.15 K); 1563.7 ± 2.9 m/s (313.15 K). Besides, the speed of sound (318.15 K) was 1550.2 ± 2.9 m/s. For the same molecule, the mass density (288.15 K) came out at 1264.08 ± 1.4 kg/m3; the mass density (293.15 K) was 1260.52 ± 1.4 kg/m3; the mass density (298.15 K) is recorded as 1256.87 ± 1.4 kg/m3; the mass density (303.15 K) is 1253.05 ± 1.4 kg/m3; the mass density (308.15 K) amounted to 1249.57 ± 1.4 kg/m3; the mass density (313.15 K) came to 1246.17 ± 1.4 kg/m3. Also, the mass density (318.15 K) amounted to 1242.76 ± 1.4 kg/m3.

For the origin of these results see the NIST ThermoML archive (doi:10.1016/j.fluid.2013.08.029).
